Article PMC5524711 (Scientific Reports, 2017)
Like-named read-outs stand apart in the source and are kept apart here.

Tests used:
α1β2γ2 GABAA receptors = biological target: T1, α1β2γ2 GABAA receptors (UniProt P18508+P47870+P62813); experiment: Xenopus oocyte two-electrode voltage clamp; type: cell-based, rat and human
T1 construct: expressed in transfected cells; host or cells: Xenopus laevis oocytes (cRNA injection)

[1] = biological target: GABAA receptors, benzodiazepine site (washed rat brain membranes); experiment: [3H]Flunitrazepam binding and displacement; details: read-out: [3H]Flunitrazepam Binding, displacement, 1 nM [3H]flunitrazepam, 10 µM GABA
Experimental: Membrane Preparation. These experiments were performed at the University of Colorado Health Sciences Center, Denver, CO. Experiments were approved by the Institutional Animal Care and Use Committee (IACUC) of the University of Colorado, Denver, and were performed in accordance with the NIH Guide for the Care and Use of Laboratory Animals. Male Sprague-Dawley rats (200–250 g) were maintained in an AAALAC-accredited facility and sacrificed by CO2 exposure and decapitation. Brains were removed, and membranes were prepared from the forebrain as described previously. Ligand binding assay. […] Bound and free ligand were separated by rapid filtration under vacuum over Whatman GF/B filters presoaked in buffer in a 24 port Brandel Cell Harvester. Filters were washed with 2 × 5 ml of ice-cold HEPES buffer and dried prior to measurement of bound radioactivity by scintillation counting (Beckman LS3800 scintillation counter) using Ultima Gold XR scintillation cocktail. Analysis of ligand binding data.

[2] = biological target: GABAA receptors (washed rat brain membranes); experiment: Displacement of [3H]muscimol binding (PDSP); details: 5 nM [3H]muscimol
Experimental: Rat brain membranes were prepared as described in the Protocol Manual on the PDSP website (https://pdspdb.unc.edu/pdspWeb/). […] The final concentration of [^3H]muscimol in the assay mixture was 5 nM. […] Analysis of ligand binding data.

[3] = biological target: T2, α1β2(N265S)γ2 GABAA receptors (UniProt P18508+P47870+P62813, N289S); set-up: method as in PMID 19741491; details: concentrations up to 1 mM; cited from earlier work
T2 construct: expressed in transfected cells; host or cells: Xenopus laevis oocytes (cRNA injection)

α4β3δ GABAA receptors [4] = biological target: T3, α4β3δ GABAA receptors (UniProt P18506+P48169+P63079); set-up: method as in Borghese et al., 2006; details: a4b3d; ref Borghese et al., 2006; cited from earlier work
T3 construct: expressed in transfected cells; host or cells: Xenopus laevis oocytes (cRNA injection)

α4β3γ2 GABAA receptors [5] = biological target: T4, α4β3γ2 GABAA receptors (UniProt P18508+P48169+P63079); set-up: method as in Borghese et al., 2006; details: a4b3g2; ref Borghese et al., 2006; cited from earlier work
T4 construct: expressed in transfected cells; host or cells: Xenopus laevis oocytes (cRNA injection)

α1β3δ GABAA receptors = biological target: T5, α1β3δ GABAA receptors (Rattus norvegicus, UniProt P18506+P62813+P63079); experiment: Xenopus oocyte two-electrode voltage clamp; type: cell-based; details: a1b3d
T5 construct: expressed in transfected cells; host or cells: Xenopus laevis oocytes (cRNA injection)

α1β2 GABAA receptors = biological target: T6, α1β2 GABAA receptors (UniProt P47870+P62813); experiment: Xenopus oocyte two-electrode voltage clamp; type: cell-based, rat and human; details: a1b2
T6 construct: expressed in transfected cells; host or cells: Xenopus laevis oocytes (cRNA injection)

[6] = biological target: T2, α1β2(N265S)γ2 GABAA receptors; experiment: Xenopus oocyte two-electrode voltage clamp; type: cell-based, rat and human; details: a1b2(N265S)g2
α1β1γ2 GABAA receptors = biological target: T7, α1β1γ2 GABAA receptors (Rattus norvegicus, UniProt P15431+P18508+P62813); experiment: Xenopus oocyte two-electrode voltage clamp; type: cell-based; details: a1b1g2
T7 construct: expressed in transfected cells; host or cells: Xenopus laevis oocytes (cRNA injection)

α5β3γ2 GABAA receptors = biological target: T8, α5β3γ2 GABAA receptors (UniProt P18508+P31644+P63079); experiment: Xenopus oocyte two-electrode voltage clamp; type: cell-based, rat; details: a5b3g2
T8 construct: expressed in transfected cells; host or cells: Xenopus laevis oocytes (cRNA injection)

α1β2γ1 GABAA receptors = biological target: T9, α1β2γ1 GABAA receptors (UniProt P47870+P62813+Q8N1C3); experiment: Xenopus oocyte two-electrode voltage clamp; type: cell-based, rat and human; details: a1b2g1
T9 construct: expressed in transfected cells; host or cells: Xenopus laevis oocytes (cRNA injection); γ1 cDNA synthesized by GenScript in pGEMHE

α5β3 GABAA receptors = biological target: T10, α5β3 GABAA receptors (UniProt P31644+P63079); experiment: Xenopus oocyte two-electrode voltage clamp; type: cell-based, rat; details: a5b3
T10 construct: expressed in transfected cells; host or cells: Xenopus laevis oocytes (cRNA injection)

α1β3 GABAA receptors = biological target: T11, α1β3 GABAA receptors (Rattus norvegicus, UniProt P62813+P63079); experiment: Xenopus oocyte two-electrode voltage clamp; type: cell-based; details: a1b3
T11 construct: expressed in transfected cells; host or cells: Xenopus laevis oocytes (cRNA injection)

α1β3γ2 GABAA receptors = biological target: T12, α1β3γ2 GABAA receptors (Rattus norvegicus, UniProt P18508+P62813+P63079); experiment: Xenopus oocyte two-electrode voltage clamp; type: cell-based; details: a1b3g2
T12 construct: expressed in transfected cells; host or cells: Xenopus laevis oocytes (cRNA injection)

α4β3γ2 GABAA receptors [7] = biological target: T4, α4β3γ2 GABAA receptors; experiment: Xenopus oocyte two-electrode voltage clamp; type: cell-based, rat; details: a4b3g2; [Zn++] 1 µM
α4β3δ GABAA receptors [8] = biological target: T3, α4β3δ GABAA receptors; experiment: Xenopus oocyte two-electrode voltage clamp; type: cell-based, rat; details: a4b3d; [Zn++] 1 µM
medial CeA neurons = experiment: Brain slice whole cell patch clamp recording; type: cell-based, rat; details: 100 μM, focally applied following DCUK-OEt (0.5 µM)
Experimental: Slices were prepared from brains of 5 adult male Wistar rats (250–350 g) as described by Herman et al.[56]. A single slice was transferred to a recording chamber mounted on the stage of an upright microscope (Olympus BX50WI).
Neurons were visualized and whole cell patch clamp recordings were made as previously described[56]. Series resistance was typically <15 MΩ and was continuously monitored with a hyperpolarizing 10 mV pulse. Electrophysiological properties of cells were determined by pClamp 10 Clampex software online during voltage-clamp recording using a 5 mV pulse delivered after breaking into the cell. The resting membrane potential was determined online after breaking into the cell using the zero current (I = 0) recording configuration and the liquid junction potential was included in the determination. […]
Frequency, amplitude and decay of spontaneous inhibitory postsynaptic currents (sIPSCs) were analyzed and visually confirmed using a semi-automated threshold based mini detection software (Mini Analysis, Synaptosoft Inc.). Averages of sIPSC characteristics were determined from baseline and experimental drug conditions containing a minimum of 60 events (time period of analysis varied as a product of individual event frequency) and decay kinetics were determined using exponential curve fittings and reported as decay time (ms). […]

T1 sequence (P62813 28-455): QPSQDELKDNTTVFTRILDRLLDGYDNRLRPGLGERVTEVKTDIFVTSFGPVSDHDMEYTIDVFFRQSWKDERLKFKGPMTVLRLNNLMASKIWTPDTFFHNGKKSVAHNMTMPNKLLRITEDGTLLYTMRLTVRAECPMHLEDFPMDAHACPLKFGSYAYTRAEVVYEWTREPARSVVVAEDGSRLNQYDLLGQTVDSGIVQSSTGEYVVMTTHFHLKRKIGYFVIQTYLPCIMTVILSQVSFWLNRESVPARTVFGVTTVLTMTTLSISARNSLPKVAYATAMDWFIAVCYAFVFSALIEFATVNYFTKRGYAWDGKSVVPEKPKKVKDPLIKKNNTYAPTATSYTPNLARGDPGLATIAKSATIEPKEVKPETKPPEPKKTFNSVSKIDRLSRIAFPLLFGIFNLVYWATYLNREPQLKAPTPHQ
T1 sequence (P47870 26-474 isoform P47870-1 limits assumed): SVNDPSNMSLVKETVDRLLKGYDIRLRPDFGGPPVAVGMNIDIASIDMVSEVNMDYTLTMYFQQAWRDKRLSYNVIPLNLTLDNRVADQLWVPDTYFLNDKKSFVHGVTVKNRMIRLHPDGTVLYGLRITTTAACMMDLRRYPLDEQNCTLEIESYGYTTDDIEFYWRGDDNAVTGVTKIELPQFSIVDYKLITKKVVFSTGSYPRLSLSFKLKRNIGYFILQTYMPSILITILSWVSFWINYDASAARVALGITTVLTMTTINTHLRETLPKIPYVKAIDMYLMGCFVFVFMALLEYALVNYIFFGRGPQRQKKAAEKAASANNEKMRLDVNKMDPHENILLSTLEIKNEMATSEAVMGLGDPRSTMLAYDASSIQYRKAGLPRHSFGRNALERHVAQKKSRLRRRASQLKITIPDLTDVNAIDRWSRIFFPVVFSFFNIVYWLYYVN
T1 sequence (P18508 39-466): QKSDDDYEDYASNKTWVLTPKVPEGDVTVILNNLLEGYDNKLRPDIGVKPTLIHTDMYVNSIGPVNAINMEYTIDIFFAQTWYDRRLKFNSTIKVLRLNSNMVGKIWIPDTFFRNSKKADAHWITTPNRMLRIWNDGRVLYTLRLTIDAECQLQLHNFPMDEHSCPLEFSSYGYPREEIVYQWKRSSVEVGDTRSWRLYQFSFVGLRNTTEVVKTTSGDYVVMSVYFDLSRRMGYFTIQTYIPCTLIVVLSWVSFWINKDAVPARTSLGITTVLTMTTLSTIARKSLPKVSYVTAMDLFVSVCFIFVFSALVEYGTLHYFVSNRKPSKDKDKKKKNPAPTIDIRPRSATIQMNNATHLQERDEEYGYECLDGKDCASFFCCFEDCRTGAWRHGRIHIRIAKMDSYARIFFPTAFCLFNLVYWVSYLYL
T2 sequence (P62813 28-455): as the sequence (P62813 28-455) above
T2 sequence (P47870 25-474 isoform P47870-1 N289S limits assumed): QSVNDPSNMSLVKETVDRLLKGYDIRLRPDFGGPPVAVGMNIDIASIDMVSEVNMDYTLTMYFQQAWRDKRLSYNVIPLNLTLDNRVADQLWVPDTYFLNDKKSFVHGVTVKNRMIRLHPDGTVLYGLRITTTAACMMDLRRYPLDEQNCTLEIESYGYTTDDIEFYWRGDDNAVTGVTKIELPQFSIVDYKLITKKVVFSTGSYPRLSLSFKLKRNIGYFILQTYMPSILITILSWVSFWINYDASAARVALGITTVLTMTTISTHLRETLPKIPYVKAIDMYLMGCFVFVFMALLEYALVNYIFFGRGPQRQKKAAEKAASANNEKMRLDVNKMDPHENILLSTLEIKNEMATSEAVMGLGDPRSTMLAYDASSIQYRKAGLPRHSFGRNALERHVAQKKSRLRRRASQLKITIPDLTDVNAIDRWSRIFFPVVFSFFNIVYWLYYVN
T2 sequence (P18508 39-466): as the sequence (P18508 39-466) above
T8 sequence (P31644 32-462): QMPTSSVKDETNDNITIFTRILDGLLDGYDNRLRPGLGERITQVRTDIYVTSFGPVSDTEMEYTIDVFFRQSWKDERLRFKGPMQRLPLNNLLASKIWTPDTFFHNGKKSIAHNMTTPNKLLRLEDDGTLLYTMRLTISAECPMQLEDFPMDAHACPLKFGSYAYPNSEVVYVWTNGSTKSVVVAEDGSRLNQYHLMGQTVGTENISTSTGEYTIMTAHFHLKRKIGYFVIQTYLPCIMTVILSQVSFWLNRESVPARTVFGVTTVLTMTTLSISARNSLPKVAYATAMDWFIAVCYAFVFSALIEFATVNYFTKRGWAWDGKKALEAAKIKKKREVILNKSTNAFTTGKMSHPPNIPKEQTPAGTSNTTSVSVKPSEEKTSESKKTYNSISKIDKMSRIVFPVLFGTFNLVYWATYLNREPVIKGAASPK
T8 sequence (P63079 26-473): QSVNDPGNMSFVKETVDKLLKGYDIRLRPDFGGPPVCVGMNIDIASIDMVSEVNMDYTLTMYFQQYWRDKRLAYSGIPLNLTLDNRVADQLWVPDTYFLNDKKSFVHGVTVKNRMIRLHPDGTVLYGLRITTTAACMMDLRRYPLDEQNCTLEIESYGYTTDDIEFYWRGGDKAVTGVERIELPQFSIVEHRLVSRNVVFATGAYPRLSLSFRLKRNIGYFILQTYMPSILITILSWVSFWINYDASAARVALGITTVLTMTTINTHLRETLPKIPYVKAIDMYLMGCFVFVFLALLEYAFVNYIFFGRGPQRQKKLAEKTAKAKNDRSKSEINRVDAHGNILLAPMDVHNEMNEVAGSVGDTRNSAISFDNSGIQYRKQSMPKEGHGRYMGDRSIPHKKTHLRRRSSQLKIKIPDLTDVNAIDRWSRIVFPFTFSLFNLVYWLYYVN
T8 sequence (P18508 39-466): as the sequence (P18508 39-466) above
T10 sequence (P31644 32-462): as the sequence (P31644 32-462) above
T10 sequence (P63079 26-473): as the sequence (P63079 26-473) above

C[C@]12CC[C@@H](O)C[C@@H]1CC[C@@H]1[C@@H]2CC[C@]2(C)C(c3ccccc3)=CC[C@@H]12 [Compound 17PA, 17-phenyl-(3α,5α)-androst-16-en-3-ol]
inhibition at 10 µM (α1β2γ2 GABAA receptors; read-out: Inhibition by 17PA of DCUK-OEt potentiation of GABA actions): 35% | inhibition at 10 µM (α1β2γ2 GABAA receptors; read-out: Inhibition by 17PA of the potentiating effects of allopregnanolone on GABA-induced currents): 56%

O=C(O)c1cc(NC(=O)N(c2ccccc2)c2ccccc2)c2c(Cl)cc(Cl)cc2n1 [DCUKA, 5,7 dichloro-4-([diphenylcarbamoyl]amino) quinoline-2-carboxylic acid]
Ki [1]: > 10 µM | Ki [2]: 6.6 ± 1.9 µM | Effect of co-applied flumazenil on DCUK actions on α1β2γ2 GABAA receptors (α1β2γ2 GABAA receptors; 20 μM flumazenil, EC10 GABA): did not significantly affect | Effect on submaximal GABA (EC10) currents (α1β2γ2 GABAA receptors; oocytes containing α1β2γ2 GABAA receptors): enhanced

CCOC(=O)c1cncn1[C@H](C)c1ccccc1 [Etomidate, etomidate]
GABA potentiating effect at α1β2(N265S)γ2 [3]: no GABA potentiating effect

NCCCC(=O)O [GABA, γ-aminobutyric acid]
nH (Hill coefficient of GABA concentration-response curve) (α4β3δ GABAA receptors [4]): 0.84 ± 0.07 | nH (Hill coefficient of GABA concentration-response curve) (α4β3γ2 GABAA receptors [5]): 1.01 ± 0.09 | nH (Hill coefficient of GABA concentration-response curve) (α1β3δ GABAA receptors): 0.78 ± 0.07 | nH (Hill coefficient of GABA concentration-response curve) (α1β2 GABAA receptors): 1.19 ± 0.08 | nH (Hill coefficient of GABA concentration-response curve) [6]: 0.81 ± 0.06 | nH (Hill coefficient of GABA concentration-response curve) (α1β1γ2 GABAA receptors): 0.76 ± 0.07 | nH (Hill coefficient of GABA concentration-response curve) (α5β3γ2 GABAA receptors): 0.93 ± 0.04 | nH (Hill coefficient of GABA concentration-response curve) (α1β2γ1 GABAA receptors): 0.87 ± 0.06 | nH (Hill coefficient of GABA concentration-response curve) (α5β3 GABAA receptors): 0.93 ± 0.07 | nH (Hill coefficient of GABA concentration-response curve) (α1β3 GABAA receptors): 0.97 ± 0.06 | nH (Hill coefficient of GABA concentration-response curve) (α1β2γ2 GABAA receptors; a1b2g2): 0.99 ± 0.03 | nH (Hill coefficient of GABA concentration-response curve) (α1β3γ2 GABAA receptors): 1.33 ± 0.08

[Zn+2] [Zn++]
% change of EC10 GABA responses by Zn++ (α4β3γ2 GABAA receptors [7]): -43 ± 4% | % change of EC10 GABA responses by Zn++ (α1β3δ GABAA receptors; [Zn++] 1 µM): -35 ± 1% | % change of EC10 GABA responses by Zn++ (α1β2 GABAA receptors; [Zn++] 10 µM): -99 ± 1% | % change of EC10 GABA responses by Zn++ ([6]; [Zn++] 10 µM): 10 ± 2% | % change of EC10 GABA responses by Zn++ (α4β3δ GABAA receptors [8]): -31 ± 6% | % change of EC10 GABA responses by Zn++ (α1β1γ2 GABAA receptors; [Zn++] 100 µM): 21 ± 3% | % change of EC10 GABA responses by Zn++ (α5β3γ2 GABAA receptors; [Zn++] 10 µM): -29 ± 6% | % change of EC10 GABA responses by Zn++ (α1β2γ1 GABAA receptors; [Zn++] 10 µM): 0.4 ± 1.4% | % change of EC10 GABA responses by Zn++ (α5β3 GABAA receptors; [Zn++] 10 µM): -89 ± 2% | % change of EC10 GABA responses by Zn++ (α1β3 GABAA receptors; [Zn++] 1 µM): -85 ± 3% | % change of EC10 GABA responses by Zn++ (α1β2γ2 GABAA receptors; a1b2g2, [Zn++] 10 µM): -9 ± 4% | % change of EC10 GABA responses by Zn++ (α1β3γ2 GABAA receptors; [Zn++] 10 µM): -19 ± 4%

CCOC(=O)c1ncn2c1CN(C)C(=O)c1cc(F)ccc1-2 [flumazenil]
Potentiation of EC10 GABA responses (α1β2γ2 GABAA receptors): 51 ± 2%

COc1ccc(-c2ccc(=N)n(CCCC(=O)O)n2)cc1 [gabazine]
Holding current when applied after DCUK-OEt (medial CeA neurons): significant reduction in holding current
